Experimental data: patent US9296778B2, “3′,5′-cyclic phosphate prodrugs for HCV infection” (Idenix Pharmaceuticals, Inc., priority 2012, dated 2016)
Where two headings read alike, the source gives them in different places.

Tests used:
Zluc cells = assay: cytotoxicity evaluation (CellTiter-Blue Cell Viability Assay); details: read-out: HCV Replicon CC50; Zluc cells, CellTiter-Blue
HCV genotype 1b replicon = assay: HCV Replicon Assay; format: cell-based; details: Zluc cells (Huh-7-derived, HCV genotype 1b replicon, luciferase reporter), 72 hours, read-out: HCV Replicon EC50
Method: Huh-7-derived cell line (Zluc) that harbors an HCV genotype 1b replicon and a luciferase reporter gene was grown in Dulbecco's Modified Eagle Medium (DMEM) supplemented with 10% fetal bovine serum, 2 mM GlutaMAX, 1% MEM nonessential amino acids, 100 IU/mL penicillin, 100 μg/mL streptomycin, and 0.5 mg/mL Geneticin® (G418). For dose response testing the cells were seeded in 96-well plates at 7.5×10^3 cells per well in a volume of 50 μL, and incubated at 37° C./5% CO2. Drug solutions were made up freshly in Huh-7 media as 2× stocks. Ten additional 5-fold dilutions were prepared from these stocks in DMEM without G418. At least three hours after Zluc cells were seeded, drug treatment was initiated by adding 50 μL of drug dilutions to the plates in duplicate. Final concentrations of drug ranged from 100 μM to […]. Cells were then incubated at 37° C./5% CO2. Alternatively, compounds were tested at two concentrations (1 μM and 10 μM). […] For this, media was removed from the plates via gentle tapping. Fifty microliters of ONE-glo luciferase assay reagent was added to each well. The plates were shaken gently for 3 min at room temperature and luminescence was measured on a Victor^3 V 1420 multilabel counter (Perkin Elmer) with a 1 second read time using a 700 nm cut-off filter. The EC50 values were calculated from dose response curves from the resulting best-fit equations determined by Microsoft Excel and XLfit 4.1 software. When screening at two fixed concentrations, the results were expressed as % inhibition at 1 μM and 10 μM.

fresh human hepatocytes = assay: Release of active metabolite in fresh human hepatocytes; format: in vitro ADME; details: 10 μM compound; for FHH TP Cmax: fresh human hepatocytes; for FHH TP AUC: fresh human hepatocytes, 6, 24 and 48 hours
Method: Plates of fresh human and mouse hepatocytes were obtained on ice. The medium was removed and replaced with hepatocyte culture medium (William's E supplemented with penicillin-streptomycin, 1% L-glutamine, 1% insulin-transferrin-selenium and 0.1 μM Dexamethasone (Invitrogen) or with Invitro GRO HI medium complemented with Torpedo antibiotics (Celsis)). Cells were left overnight in an incubator at 37° C. to acclimatize to culture and the medium.
Hepatocyte incubations were conducted at a final volume of 0.5 mL hepatocyte culture medium/well (0.8 million cells/well for human and 0.5 million cells/well for mouse; 12 well plate no overlay, collagen coat). Culture medium from overnight incubation of cells was removed and replaced with fresh medium, pre-warmed to 37° C., containing 10 μM of test compound from a stock solution in DMSO (final DMSO concentration was 0.1%). At each specific time point, incubation medium was removed and cell monolayers were carefully washed two times with ice-cold PBS. Following the last wash, all PBS was carefully removed and 1.0 mL of extraction solution (ice-cold 70% methanol/30% water) added. Cells were scraped off and suspended in the extraction solution, transferred to 2 mL polypropylene microfuge tubes and intracellular contents extracted overnight at −20° C.
After the overnight treatment the cellular extracts were prepared by centrifugation at 16,000×g for 10 min to remove cellular debris. The remaining sample was then dried using a refrigerated centrivap concentrator. Dry extracts were reconstituted in 1000 μL of HPLC-grade water and centrifuged at 16,000×g for 10 min. Aliquots (100 μL each) of the supernatant were transferred into a 96 well plate and internal standard (4 ng/mL final concentration) was added as the internal standard (IS) for LC-MS/MS analysis.
The incubation time points were 6, 24 and 48 hours for human hepatocytes and 1, 4, 8, 12 and 24 hours for mouse hepatocytes.

in vitro = details: human, HCV Replicon CC50, Zluc cells, CellTiter-Blue

| Structure (SMILES) | CC50 (Zluc cells) [µM] | EC50 (HCV genotype 1b replicon) [nM] | FHH TP Cmax (fresh human hepatocytes) | FHH TP AUC (fresh human hepatocytes) | EC50 (HCV genotype 1b replicon; Hepatitis C virus, 72 h) [nM] | CC50 (in vitro) [µM] |
| --- | --- | --- | --- | --- | --- | --- |
| CCOc1nc(N)nc2c1ncn2[C@@H]1O[C@@H]2COP(=O)(OC[C@H](C)NC(=O)OCC(C)C)O[C@H]2[C@@]1(C)F (single isomer, unassigned; diastereomer 1) [Compound 12 Diastereomer 1] | > 50 | < 250 |  |  |  |  |
| CCOc1nc(N)nc2c1ncn2[C@@H]1O[C@@H]2COP(=O)(OCCSC(=O)C(C)(C)CO)O[C@H]2[C@@]1(C)OC(C)=O (single isomer, unassigned; diastereomer 1) [Compound 16 Diastereomer 1] | < 50 | < 250 |  |  |  |  |
| CC(C)(CO)C(=O)SCCOP1(=O)OC[C@H]2O[C@@H](n3cnc4c(=O)[nH]c(N)nc43)[C@](C)(F)[C@@H]2O1 (single isomer, unassigned; diastereomer 1) [Compound 17 Diastereomer 1] | > 50 | 250 to 1000 |  |  |  |  |
| CC(=O)OCC(C)(C)C(=O)SCCOP1(=O)OC[C@H]2O[C@@H](n3cnc4c(=O)[nH]c(N)nc43)[C@](C)(F)[C@@H]2O1 (single isomer, unassigned; diastereomer 1) [Compound 18 Diastereomer 1] | > 50 | 250 to 1000 |  |  |  |  |
| CCOc1nc(N)nc2c1ncn2[C@@H]1O[C@@H]2COP(=O)(OCCSC(=O)C(C)(C)COC(C)=O)O[C@H]2[C@@]1(C)OC(C)=O (single isomer, unassigned; diastereomer 1) [Compound 19 Diastereomer 1] | < 50 | < 250 |  |  |  |  |
| CCOc1nc(N)nc2c1ncn2[C@@H]1O[C@@H]2COP(=O)(OCCC(=O)OC(C)C)O[C@H]2[C@@]1(C)O (single isomer, unassigned; diastereomer 1) [Compound 22 Diastereomer 1] | > 50 | < 250 | 44 pmol/mill cells | 1247 pmol · hr/mill cells |  |  |
| COc1nc(N)nc2c1ncn2[C@@H]1O[C@@H]2COP(=O)(OCC(=O)OC(C)C)O[C@H]2[C@@]1(C)F (single isomer, unassigned; diastereomer 1) [Compound 26 Diastereomer 1] |  |  | BLD^a | BLD^a |  |  |
| CCOC(=O)COP1(=O)OC[C@H]2O[C@@H](n3cnc4c(OCC)nc(N)nc43)[C@](C)(F)[C@@H]2O1 (single isomer, unassigned; diastereomer 2) [Compound 7 Diastereomer 2] |  | < 250 |  |  |  |  |
| CC(C)(CO)C(=O)SCCOP1(=O)OC[C@H]2O[C@@H](n3cnc4c(=O)[nH]c(N)nc43)[C@](C)(F)[C@@H]2O1 (single isomer, unassigned; diastereomer 2) [Compound 17 Diastereomer 2] | < 50 | < 250 |  |  |  |  |
| CC(=O)OCC(C)(C)C(=O)SCCOP1(=O)OC[C@H]2O[C@@H](n3cnc4c(=O)[nH]c(N)nc43)[C@](C)(F)[C@@H]2O1 (single isomer, unassigned; diastereomer 2) [Compound 18 Diastereomer 2] | < 50 | < 250 |  |  |  |  |
| CCOc1nc(N)nc2c1ncn2[C@@H]1O[C@@H]2COP(=O)(OCCSC(=O)C(C)(C)COC(C)=O)O[C@H]2[C@@]1(C)OC(C)=O (single isomer, unassigned; diastereomer 2) [Compound 19 Diastereomer 2] | < 50 | < 250 |  |  |  |  |
| CCOC(=O)N[C@@H](C)COP1(=O)OC[C@H]2O[C@@H](n3cnc4c(OCC)nc(N)nc43)[C@](C)(F)[C@@H]2O1 (stereo partly drawn) [Compound 11] |  |  |  |  | < 250 | > 50 |
| CCOc1nc(N)nc2c1ncn2[C@@H]1O[C@@H]2COP(=O)(OC[C@H](NC(=O)OC)C(=O)OC(C)C)O[C@H]2[C@@]1(C)F (stereo partly drawn) [Compound 15] |  |  | 36 pmol/mill cells | 1335 pmol · hr/mill cells | < 250 | > 50 |
| CCOc1nc(N)nc2c1ncn2[C@@H]1O[C@@H]2COP(=O)(OCCC(=O)OC(C)C)O[C@H]2[C@@]1(C)F (stereo partly drawn) [Compound 21] |  |  |  |  | < 250 | > 50 |
| CCOC(=O)CCCOP1(=O)OC[C@H]2O[C@@H](n3cnc4c(OC)nc(N)nc43)[C@](C)(O)[C@@H]2O1 (stereo partly drawn) [Compound 25] |  |  |  |  | 250 to 1000 | > 50 |
| COc1nc(N)nc2c1ncn2[C@@H]1O[C@@H]2COP(=O)(OCC(=O)OC(C)C)O[C@H]2[C@@]1(C)F (stereo partly drawn) [Compound 26] |  |  |  |  | < 250 | > 50 |
| COc1nc(N)nc2c1ncn2[C@@H]1O[C@@H]2COP(=O)(OCC(=O)OCc3ccccc3)O[C@H]2[C@@]1(C)O (stereo partly drawn) [Compound 27] |  |  |  |  | < 250 | < 50 |
| COc1nc(N)nc2c1ncn2[C@@H]1O[C@@H]2COP(=O)(OCC(=O)OC(C)C)O[C@H]2[C@@]1(C)O (stereo partly drawn) [Compound 28] |  |  |  |  | < 250 | < 50 |
| CCOC(=O)CCCOP1(=O)OC[C@H]2O[C@@H](n3cnc4c(OC)nc(N)nc43)[C@](C)(O)[C@@H]2O1 (stereo partly drawn) [Compound 29] | < 50 | < 250 |  |  |  |  |
| CCOC(=O)[C@@H](C)OP1(=O)OC[C@H]2O[C@@H](n3cnc4c(OC)nc(N)nc43)C(C)(O)[C@@H]2O1 (stereo partly drawn) [Compound 30] |  |  |  |  | 1000 to 10000 | > 50 |
| CCOC(=O)C[C@@H](C)OP1(=O)OC[C@H]2O[C@@H](n3cnc4c(OC)nc(N)nc43)[C@](C)(O)[C@@H]2O1 (stereo partly drawn) [Compound 31] |  |  |  |  | 250 to 1000 | > 50 |
| COc1nc(N)nc2c1ncn2[C@@H]1O[C@@H]2COP(=O)(OCC(=O)OC(C)C)O[C@H]2[C@@]1(C)OC(C)=O (stereo partly drawn) [Compound 32] |  |  |  |  | < 250 | < 50 |
| COC(=O)c1ccccc1COP1(=O)OC[C@H]2O[C@@H](n3cnc4c(OC)nc(N)nc43)[C@](C)(O)[C@@H]2O1 (stereo partly drawn) [Compound 33] |  |  |  |  | < 250 | < 50 |
| CCOC(=O)OC(C)OP1(=O)OC[C@H]2O[C@@H](n3cnc4c(OC)nc(N)nc43)[C@](C)(O)[C@@H]2O1 (stereo partly drawn) [Compound 34] |  |  |  |  | < 250 | < 50 |
| COc1nc(N)nc2c1ncn2[C@@H]1O[C@@H]2COP(=O)(OCCSSCCO)O[C@H]2[C@@]1(C)O (stereo partly drawn) [Compound 37] |  |  |  |  | < 250 | < 50 |
| CCOc1nc(N)nc2c1ncn2[C@@H]1O[C@@H]2COP(=O)(OCCCNC(=O)[C@@H]3OC(C)(C)OCC3(C)C)O[C@H]2[C@@]1(C)O (stereo partly drawn) [Compound 38] |  |  |  |  | < 250 | > 50 |
| CCOc1nc(N)nc2c1ncn2[C@@H]1O[C@@H]2COP(=O)(OCCCNC(=O)[C@H](O)C(C)(C)CO)O[C@H]2[C@@]1(C)O (stereo partly drawn) [Compound 39] |  |  |  |  | < 250 | < 50 |
